From PubChem BioAssay (NCI)
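A five-concentration, 48-hour dose response in 96-well plates underlies each endpoint, interpolated linearly between surrounding concentrations. The concentration for 50% growth inhibition is given as GI50. TGI: total growth inhibition.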

How the values were obtained:
Assay in all cases: growth of human tumour cells (NCI), 48 h
NCI-H522 lung = system: NCI-H522 lung
OVCAR-4 ovarian = system: OVCAR-4 ovarian
UACC-257 melanoma = system: UACC-257 melanoma
HCT-116 colon = system: HCT-116 colon
SK-MEL-2 melanoma = system: SK-MEL-2 melanoma
NCI/ADR-RES ovarian = system: NCI/ADR-RES ovarian
SN12C renal = system: SN12C renal
KM12 colon = system: KM12 colon
TK-10 renal = system: TK-10 renal
786-0 renal = system: 786-0 renal

SMILES | GI50 (NCI-H522 lung) [µM] | TGI (NCI-H522 lung) [µM] | GI50 (OVCAR-4 ovarian) [µM] | TGI (OVCAR-4 ovarian) [µM] | GI50 (UACC-257 melanoma) [µM] | TGI (UACC-257 melanoma) [µM] | GI50 (HCT-116 colon) [µM] | TGI (HCT-116 colon) [µM] | GI50 (SK-MEL-2 melanoma) [µM] | TGI (SK-MEL-2 melanoma) [µM] | GI50 (NCI/ADR-RES ovarian) [µM] | TGI (NCI/ADR-RES ovarian) [µM] | GI50 (SN12C renal) [µM] | TGI (SN12C renal) [µM] | GI50 (KM12 colon) [µM] | TGI (KM12 colon) [µM] | GI50 (TK-10 renal) [µM] | TGI (TK-10 renal) [µM] | GI50 (786-0 renal) [µM] | TGI (786-0 renal) [µM]
Cc1ccn2c(-c3csc(Nc4cccc(O)c4)n3)c(C)nc2c1 | 0.32 | 3.22 | 2.43 | 53.2 | 3.48 | 19.6 | 0.397 | 15.1 | 0.72 | 20.4 | 0.957 | > 45.1 | 0.946 | 27.8 | 0.273 | 16.4 | 4.88 | 24.9 | 1.8 | 8.81
[CH3][Sn]([CH3])([CH3])[O]C(=O)C(O)c1ccccc1 (configuration not stated) | 2.6 | 13.1 | 7.51 | > 100 | 4.25 | > 41.7 | 3.58 | 31.6 | 2.06 | 4.51 | 6.39 | 79.5 | 8.7 | 99 | 8.78 | > 100 | > 59.3 | > 100 | 4.81 | > 100
N#Cc1ccc(N2Cc3cc(Cl)ccc3OC3=C2C(=O)N(Cc2ccc(F)cc2)C3=O)cc1 | 0.475 | 1.01 | 0.206 | 0.563 | 0.556 | 1.15 | 0.275 | 0.934 | 0.314 | 0.867 | 0.85 | 8.58 | 0.567 | 1.19 | 1.83 | 6.59 | 0.567 | 1.1 | 0.578 | 1.27
O=C(N/N=C/c1ccncc1)c1ccc(C(F)(F)F)nc1Nc1cccc(C(F)(F)F)c1 | 2.7 | 10.7 | 0.808 | 7.99 | 3.78 | 10.6 | 1.4 | 10.4 |  |  | 2.67 | 9.22 | 2.37 | 11.5 | 3.23 | 12.4 | 2.52 | 11.6 | 1.29 | 7.55
O=c1c2cc(Br)ccc2[nH]c(=S)n1-c1ccccc1 |  |  |  | > 100 |  | > 100 |  | > 100 |  | > 100 |  |  |  | > 100 |  | > 100 |  | > 100 |  | > 100
CC(=O)NC1CCCN(O)C(=O)/C=C(/C)CCOC(=O)C(NC(C)=O)CCCN(O)C(=O)/C=C(/C)CCOC(=O)C(NC(C)=O)CCCN(O)C(=O)/C=C(/C)CCOC1=O.[Fe] (configuration not stated) | > 100 | > 100 | > 100 | > 100 | > 100 | > 100 | > 100 | > 100 | > 100 | > 100 | > 100 | > 100 | > 100 | > 100 | > 100 | > 100 | > 100 | > 100 | > 100 | > 100
Nc1cccc2c1CN(C1CCC(=O)NC1=O)C2=O (configuration not stated) | > 100 | > 100 | > 100 | > 100 | > 100 | > 100 | > 100 | > 100 | > 100 | > 100 | > 100 | > 100 | > 100 | > 100 | > 100 | > 100 | > 100 | > 100 | > 100 | > 100
O=S1CCN(Cc2ccc(-c3ccc4ncnc(Nc5ccc(OCc6ccccc6)c(F)c5)c4c3)o2)CC1 | 0.984 | > 20.1 | 5.75 | > 25 | 6.66 | > 25 | 9.96 | > 25 | 5.46 | 12.2 | 7.36 | > 25 | 8.07 | > 25 | 10.1 | > 25 | 0.232 | > 25 | 6.59 | 18.6
CC(=O)Nc1cc(C(c2ccccc2)c2ccccc2)cc(C(c2ccccc2)c2ccccc2)c1C | 6.39 | > 100 | 21.7 | > 100 | 8.72 | > 100 | 3.28 | > 100 | 5.18 | > 100 | 6.01 | > 100 | 27.5 | > 100 | 6.19 | > 100 |  |  | > 100 | > 100
Cc1cc(C(=O)N2CCN(C)CC2)c2c(=O)n(-c3ccccc3)c(=O)n(CC(O)CN3CCN(c4ncccn4)CC3)c2n1 (configuration not stated) | > 100 | > 100 | > 100 | > 100 |  |  | > 100 | > 100 | > 100 | > 100 | > 100 | > 100 | > 100 | > 100 | > 100 | > 100 | > 100 | > 100 | > 100 | > 100
Cc1nn2c(=O)n(-c3cccc(-n4nnc5c(-c6ccccc6)c(C)nn5c4=O)c3C)nnc2c1-c1ccccc1 |  | 33.2 |  | 53.7 |  | 70.2 |  | 30.4 |  | 17.5 |  |  |  | 36.5 |  |  |  | > 100 |  | > 100
CC(C)(C)C1CCC(CI)(N=[N+]=[N-])CC1 (configuration not stated) |  | > 100 |  | > 100 |  | > 100 |  | > 100 |  | > 100 |  |  |  | > 100 |  | > 100 |  | > 100 |  | > 100
CN(C)CCCNC(=O)c1cccc2nc3ccccc3nc12 |  | > 100 |  | 47.2 |  | 19.5 |  | 34.7 |  | 29 |  |  |  | > 100 |  | 49.9 |  | > 100 |  | > 100
Cc1ccc(NC(C(=O)c2ccccc2)c2ccccc2)cc1 (configuration not stated) |  |  | 3.93 | > 100 | 2.8 | 8.42 | 2.04 | 12.4 |  |  | 18.8 | > 100 | 3.55 | > 100 | 2.59 | 13.4 |  |  | 4.02 | 15.6
